The text below walks through data of patent US20090105237A1, “Cooling compounds” (priority 2005, published 2009).

Assay type in all cases: in vivo
One assay deals with panelists. Kind of assay: Panel tasting of solutions of cooling compounds: concentration with cooling intensity similar or slightly higher than menthol at 2 ppm. To be noted: solution with cooling intensity similar or slightly higher than a solution of menthol at 2 ppm; small group of panelists.
For assay [1], the system named is mouth. Kind of assay: Application in toothpaste: panelist's teeth brushed with toothgel, mouth rinsed with water. The source says: The chemicals are mixed in the toothgel, a piece of toothgel was put on a toothbrush and a panelist's teeth were brushed. The mouth was rinsed with water and the water was spit out. […] The cooling perception lasted for several hours.

Assay [2] relates to mouth. Kind of assay: Application in chewing gum: gum stick chewed by a panelist for 15 minutes and spit out. The procedure: All the ingredients are mixed in the prewarmed gum base. The mixture is spread in thick films, cooled down and cut in sticks. A gum stick is chewed by a panelist for 15 minutes and spit out. […] When spit out, the cooling sensation becomes intense and lasts for several hours

With `CC1CCC(C(C)C)C(C(=O)Nc2cccc(C(N)=O)c2)C1` (stereo not drawn) [Example 2, N-(3-carboxamidophenyl) p-menthanecarboxamide], the Concentration with panelists is 0.2 ppm.
For the compound `COCCNC(=O)c1ccc(NC(=O)C2CC(C)CCC2C(C)C)cc1` (stereo not drawn) [Example 4, 4-[p-menthanecarbonyl-amino]-N-(2-methoxy-ethyl)-benzamide], the Concentration in the assay with panelists was 0.25 ppm.
`CC1CCC(C(C)C)C(C(=O)Nc2ccccc2C(N)=O)C1` (stereo not drawn) [Example 3, N-(2-carboxamidophenyl) p-menthanecarboxamide]: in the assay with panelists, the Concentration is reported as 0.5 ppm. In addition, the “cooling sensation after brushing” value in the assay with mouth [1] (0.500 g of a 5% gel in peppermint oil in 99.500 g opaque toothgel, after rinsing, all areas of the mouth) was “intense cooling sensation”. For the same compound, the “duration of cooling perception” value in the assay with mouth [1] (toothgel, after brushing and rinsing) is on record as “several hours”.
In the assay with panelists, `CC1CCC(C(C)C)C(C(=O)Nc2ccc(C(N)=O)cc2)C1` (stereo not drawn) [Example 1, N-(4-carboxamidophenyl) p-menthanecarboxamide] yielded a Concentration of 0.15 ppm. The “cooling sensation when spit out” value in the assay with mouth [2] (chewing gum with 0.100 g compound per about 100 g, with peppermint oil, after 15 minutes of chewing) is “intense”. Further, in the assay with mouth [2] (chewing gum with 0.100 g compound per about 100 g, with peppermint oil, chewed 15 minutes, all areas of the mouth), the “cooling sensation when chewed” value is reported as “agreeable cooling sensation”. Besides, the “duration of cooling sensation” value in the assay on mouth [2] (chewing gum, after it is spit out) is listed as “several hours”.
On to `CC1CCC(C(C)C)C(C(=O)Nc2ccc(C(=O)N3CCN(C)CC3)cc2)C1` (stereo not drawn) [Example 5, N-(4-(4-methylpiperazine-1-carbonyl)phenyl) p-menthanecarboxamide], for which, in the assay on panelists, the Concentration is given as 0.4 ppm.
Still for that read-out and setting: as for `CC1CCC(C(C)C)C(O)C1` (stereo not drawn) [Example 1-Menthol, 1-Menthol, reference compound], the figure is 2.0 ppm.
Compound `CCNC(=O)C1CC(C)CCC1C(C)C` (stereo not drawn) [N-ethyl p-menthanecarboxamide (WS-3), N-ethyl p-menthanecarboxamide, reference compound] displayed a Concentration in the assay on panelists of 1.5 ppm.
